The nature of data set [1]: Rodent pharmacokinetics (rat PK). It is filed as in vivo. As to conditions: po, dosed intravenously or orally by gavage, plasma, read-out: F % (bioavailability). Summed up: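 F % is reported as a letter code: A for ≥5%, B for ≤5%. It was derived from rat plasma profiles after intravenous or oral gavage dosing, with jugular vein sampling from predose to 24 h (5 min point for IV only).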

For the next data set, the target named is T1, IRAK4 (Homo sapiens, UniProt Q9NWZ3).
T1 construct: endogenous in cells; host or cells: OCI-LY10
T1 sequence (Q9NWZ3 1-460): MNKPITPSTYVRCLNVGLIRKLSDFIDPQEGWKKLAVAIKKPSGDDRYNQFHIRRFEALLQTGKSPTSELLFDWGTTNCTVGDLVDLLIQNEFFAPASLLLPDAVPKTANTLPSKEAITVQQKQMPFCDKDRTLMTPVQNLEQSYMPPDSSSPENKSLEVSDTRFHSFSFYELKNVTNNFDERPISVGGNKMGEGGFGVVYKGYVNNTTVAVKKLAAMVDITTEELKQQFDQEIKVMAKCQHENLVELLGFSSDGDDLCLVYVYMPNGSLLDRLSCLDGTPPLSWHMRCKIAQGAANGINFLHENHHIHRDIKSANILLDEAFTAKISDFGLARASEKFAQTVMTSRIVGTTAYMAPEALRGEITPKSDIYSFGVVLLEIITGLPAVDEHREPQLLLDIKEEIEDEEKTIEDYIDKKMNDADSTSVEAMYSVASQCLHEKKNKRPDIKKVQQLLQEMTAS
The data set is described as follows: IRAK4 MSD degradation in OCI-LY10. The data set is classed as cell-based. As to conditions: OCI-LY10 cells, 24 hrs, Meso Scale Discovery. Summed up: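 Remaining IRAK4 protein measured by Meso Scale Discovery electrochemiluminescence sandwich assay on lysates of OCI-LY10 cells. Cells were exposed for 4 to 24 hours (37° C., 5% CO2) to eight 1:3-diluted concentrations starting at 1 to 10 μM. DC50 derived by three-parameter logistic fitting.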

The results in this text go back to patent US20250059164A1, “IRAK DEGRADERS AND USES THEREOF” (Kymera Therapeutics, Inc., priority 2023, published 2025).

Where only a bound is given, the exact number is not on record here.

Take `Cn1c(=O)n(C2CCC(=O)NC2=O)c2cccc(N3CC4(CCN(C[C@H]5CC[C@H](c6nc7cc(C(C)(C)O)c(NC(=O)c8cccc(C(F)(F)F)n8)cc7s6)CC5)CC4(F)F)C3)c21` (some centres unmarked) [I-409]: the bioavailability – broadly, the share of a dose that reaches the circulation, judged against a reference dose that is usually intravenous – in data set [1] is at least 5%. Moreover, the half-maximal degradation concentration (DC50) (as a rule, the concentration giving 50% degradation) at IRAK4 was in the range of 10 to 100 nM.

Consider `Cn1c(=O)n(C2CCC(=O)NC2=O)c2cccc(N3CC4(CCN(C[C@H]5CC[C@H](c6nc7cc(C(C)(C)O)c(NC(=O)c8cncc(C#N)c8)cc7o6)CC5)CC4(F)F)C3)c21` (some centres unmarked) [I-410], for which the bioavailability in data set [1] is at least 5%. On IRAK4, the DC50 is over 200 nM.

Consider `Cn1c(=O)n(C2CCC(=O)NC2=O)c2cccc(N3CC4(CCN(C[C@H]5CC[C@H](c6nc7cc(C(C)(C)O)c(NC(=O)c8cccc(C(F)(F)F)n8)cc7o6)CC5)CC4(F)F)C3)c21` (some centres unmarked) [I-411], for which, in data set [1], the bioavailability was at least 5%. In addition, the DC50 on IRAK4 was over 200 nM.

For `COc1ccc2c(c1N1CC3(CCN(C[C@H]4CC[C@H](c5nc6cc(C(C)(C)O)c(NC(=O)c7cncc(C#N)c7)cc6s5)CC4)CC3(F)F)C1)n(C)c(=O)n2C1CCC(=O)NC1=O` (some centres unmarked) [I-412], in data set [1], the bioavailability was at most 5%. The DC50 on IRAK4 lay within 100 to 200 nM.

For the compound `COc1ccc2c(c1N1CC3(CCN(C[C@H]4CC[C@H](c5nc6cc(C(C)(C)O)c(NC(=O)c7cncc(C#N)c7)cc6o5)CC4)CC3(F)F)C1)n(C)c(=O)n2C1CCC(=O)NC1=O` (some centres unmarked) [I-413], in data set [1], the bioavailability is at most 5%. Besides, the DC50 on IRAK4 is over 200 nM.

Consider `COc1ccc2c(c1N1CC3(CCN(C[C@H]4CC[C@H](c5nc6cc(C(C)(C)O)c(NC(=O)c7cccc(C(F)(F)F)n7)cc6s5)CC4)CC3(F)F)C1)n(C)c(=O)n2C1CCC(=O)NC1=O` (some centres unmarked) [I-414], for which, in data set [1], the bioavailability was at most 5%. At IRAK4, this compound showed a DC50 of over 200 nM.

On to `COc1ccc2c(c1N1CC3(CCN(C[C@H]4CC[C@H](c5nc6cc(C(C)(C)O)c(NC(=O)c7cccc(C(F)(F)F)n7)cc6o5)CC4)CC3(F)F)C1)n(C)c(=O)n2C1CCC(=O)NC1=O` (some centres unmarked) [I-415], for which, in data set [1], the bioavailability is at most 5%. At IRAK4, the DC50 is under 10 nM.
